Assay results: article PMC8667897, “Natural inspired piperine-based ureas and amides as novel antitumor agents towards breast cancer” (Journal of Enzyme Inhibition and Medicinal Chemistry, 2021)

Target: T1, VEGFR-2 (Homo sapiens, UniProt P35968)
T1 construct: gene KDR
Experiment: in vitro VEGFR-2 enzyme inhibition assay
Type: biochemical

T1 sequence (P35968 20-1356): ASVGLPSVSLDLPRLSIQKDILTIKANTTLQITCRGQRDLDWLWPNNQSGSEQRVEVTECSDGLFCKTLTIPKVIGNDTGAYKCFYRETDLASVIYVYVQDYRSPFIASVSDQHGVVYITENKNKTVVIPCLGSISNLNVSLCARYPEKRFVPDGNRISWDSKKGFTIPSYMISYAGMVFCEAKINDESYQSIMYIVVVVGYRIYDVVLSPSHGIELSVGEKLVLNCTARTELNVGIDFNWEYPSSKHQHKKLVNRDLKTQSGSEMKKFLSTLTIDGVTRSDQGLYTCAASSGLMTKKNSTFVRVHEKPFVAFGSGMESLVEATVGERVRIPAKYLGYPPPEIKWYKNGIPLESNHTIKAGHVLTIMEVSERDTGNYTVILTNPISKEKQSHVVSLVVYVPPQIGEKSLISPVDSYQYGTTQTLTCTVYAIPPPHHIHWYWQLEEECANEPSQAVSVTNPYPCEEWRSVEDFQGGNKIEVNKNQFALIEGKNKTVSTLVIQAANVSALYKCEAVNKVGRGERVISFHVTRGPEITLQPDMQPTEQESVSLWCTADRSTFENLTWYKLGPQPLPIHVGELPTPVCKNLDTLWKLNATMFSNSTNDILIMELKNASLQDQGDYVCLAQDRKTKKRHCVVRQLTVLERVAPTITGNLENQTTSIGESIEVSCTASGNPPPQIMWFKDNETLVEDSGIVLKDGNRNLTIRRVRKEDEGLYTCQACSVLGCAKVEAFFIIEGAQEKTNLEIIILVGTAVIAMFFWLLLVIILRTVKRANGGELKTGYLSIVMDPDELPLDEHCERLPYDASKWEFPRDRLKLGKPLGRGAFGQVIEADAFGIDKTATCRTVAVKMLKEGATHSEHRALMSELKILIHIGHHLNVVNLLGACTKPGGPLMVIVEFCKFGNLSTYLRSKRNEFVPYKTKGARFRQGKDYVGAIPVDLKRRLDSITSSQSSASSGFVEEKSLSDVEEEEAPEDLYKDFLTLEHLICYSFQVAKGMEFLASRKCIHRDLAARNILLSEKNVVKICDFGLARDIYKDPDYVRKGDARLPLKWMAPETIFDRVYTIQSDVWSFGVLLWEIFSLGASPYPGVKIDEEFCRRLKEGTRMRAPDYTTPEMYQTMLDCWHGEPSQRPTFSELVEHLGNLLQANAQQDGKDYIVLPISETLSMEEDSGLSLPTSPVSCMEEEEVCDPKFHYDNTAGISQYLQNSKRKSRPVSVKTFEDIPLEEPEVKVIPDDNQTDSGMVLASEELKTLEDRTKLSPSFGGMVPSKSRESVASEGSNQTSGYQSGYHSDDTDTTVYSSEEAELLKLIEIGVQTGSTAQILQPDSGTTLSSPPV

- IC50: 231 ± 5 nM
SMILES: O=C(N/C=C/C=C/c1ccc2c(c1)OCO2)Nc1ccc(Cl)cc1 [8q, 1-((1E,3E)-4-(Benzo[d]1,3dioxol-5-yl)buta-1,3-dien-1-yl)-3–(4-chlorophenyl)urea]
